This note sets out measurements from paper PMC4950071, “Reaction of pyranose dehydrogenase from Agaricus meleagris with its carbohydrate substrates” (The Febs Journal, 2015).

Common to all, as to assay: steady-state kinetics, ferrocenium reduction
Assay type in all cases: biochemical

The target of assay [1] is T1, AmPDH (pyranose dehydrogenase from Agaricus meleagris; A. meleagris PDH1) (Macropsalliota meleagris, UniProt Q3L245, H581A).
T1 construct: C-terminal His6 tag; covalent FAD
To be noted: apparent; electron acceptor; 500 mM glucose fixed, 100 mM borate pH 8.5, 30 °C; read-out: Fc^+ / K M. An excerpt:
(§1) steady-state kinetics, ferrocenium reduction on AmPDH (pyranose dehydrogenase from Agaricus meleagris; A. meleagris PDH1)

For assay [2], the target named is T2, AmPDH (pyranose dehydrogenase from Agaricus meleagris; A. meleagris PDH1) (Macropsalliota meleagris, UniProt Q3L245, H128A).
T2 construct: C-terminal His6 tag; covalent FAD
T2 sequence (Q3L245 26-602 H128A): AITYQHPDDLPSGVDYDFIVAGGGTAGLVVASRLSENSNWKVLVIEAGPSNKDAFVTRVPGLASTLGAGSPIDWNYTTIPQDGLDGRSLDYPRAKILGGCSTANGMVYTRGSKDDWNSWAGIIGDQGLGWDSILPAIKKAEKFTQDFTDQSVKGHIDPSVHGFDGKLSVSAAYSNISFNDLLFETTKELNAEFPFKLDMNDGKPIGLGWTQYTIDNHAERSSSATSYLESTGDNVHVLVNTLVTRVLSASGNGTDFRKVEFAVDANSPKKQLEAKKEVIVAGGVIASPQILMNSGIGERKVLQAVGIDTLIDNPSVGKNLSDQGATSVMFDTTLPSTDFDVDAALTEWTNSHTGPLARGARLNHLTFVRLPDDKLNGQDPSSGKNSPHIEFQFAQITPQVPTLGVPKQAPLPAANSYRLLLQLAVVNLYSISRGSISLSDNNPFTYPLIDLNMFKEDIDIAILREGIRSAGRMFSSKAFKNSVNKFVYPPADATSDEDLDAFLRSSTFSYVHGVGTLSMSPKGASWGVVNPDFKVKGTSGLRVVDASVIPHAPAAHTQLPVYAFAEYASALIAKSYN
The settings on record: apparent; electron acceptor; 50 mM glucose fixed, 100 mM borate pH 8.5, 30 °C; non-covalently bound FAD; read-out: Fc^+ / K M.
Text: as §1

The target of assay [3] is T3, AmPDH (pyranose dehydrogenase from Agaricus meleagris; A. meleagris PDH1) (Macropsalliota meleagris, UniProt Q3L245).
T3 construct: C-terminal His6 tag; covalent FAD
T3 sequence (Q3L245 26-602): as the sequence (Q3L245 26-602 H128A) above, with A103H counted along it
The settings on record: apparent; electron acceptor; 25 mM glucose fixed, 100 mM borate pH 8.5, 30 °C; read-out: Fc^+ / K M.
Text: as §1

The structures appear in SMILES notation.

T1 sequence (Q3L245 26-602 H581A): as the sequence (Q3L245 26-602 H128A) above, with A103H, H556A counted along it

Take `C1=CCC=C1.C1=CCC=C1.[Fe+3]` [Fc^+, ferrocenium ion]: the Km turned out to be 170 ± 10 µM in assay [1], 160 ± 10 µM in assay [2] and 170 ± 20 µM in assay [3].
